Results from the supplement of paper PMC10307832.

What was measured:
Assay in all cases: relative viability (nuclei count vs DMSO), 5 days (fraction); higher = more cells survive
[1] = compound: Cn1c(=O)n(-c2ccc(C(C)(C)C#N)cc2)c2c3cc(-c4cnc5ccccc5c4)ccc3ncc21 [Dactolisib] + COc1cc2c(Oc3ccc(NC(=O)C4(C(=O)Nc5ccc(F)cc5)CC4)cc3F)ccnc2cc1OCCCN1CCOCC1 [Foretinib] (partner 0.25 µM)
Outline: (§1)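 One day after seeding in 1536-well plates, lung cancer cell lines were dosed by pin tool. Dosing was either single-drug or a fixed anchor-drug dose plus five library-drug doses (not always all listed) in √10 steps. After 5 days, nuclei were stained in one fix-and-stain step and counted on 4× images, and relative viability is the nuclei count of treated wells over that of vehicle wells, given as the median of duplicate plates.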

[2] = compound: C1CCC(CC1)N(CCNCCC2=C3C(=C(C=C2)O)NC(=O)CO3)C(=O)CCNCCC4=CC(=C(C=C4)Cl)Cl [AZ505] + C[C@]1(O)C[C@@H](c2nc(-c3ccc4ccc(-c5ccccc5)nc4c3)c3c(N)nccn32)C1 [Linsitinib] (partner 1 µM)
Outline: as §1

[3] = compound: Cn1c(=O)n(-c2ccc(C(C)(C)C#N)cc2)c2c3cc(-c4cnc5ccccc5c4)ccc3ncc21 [Dactolisib] + Cc1nc(NC(=O)N2CCC[C@H]2C(N)=O)sc1-c1ccnc(C(C)(C)C(F)(F)F)c1 [Alpelisib] (partner 2 µM)
Outline: as §1

[4] = compound: C1CCC(CC1)N(CCNCCC2=C3C(=C(C=C2)O)NC(=O)CO3)C(=O)CCNCCC4=CC(=C(C=C4)Cl)Cl [AZ505] + Cc1cc(Nc2cc(N3CCN(C)CC3)nc(Sc3ccc(NC(=O)C4CC4)cc3)n2)n[nH]1 [Tozasertib] (partner 0.1 µM)
Outline: as §1

Cell Line: UMC-11
- relative viability ([1]; first compound 0.002 µM): 1.04
- relative viability ([1]; first compound 0.006325 µM): 0.882
- relative viability ([1]; first compound 0.02 µM): 0.671
- relative viability ([1]; first compound 0.06325 µM): 0.273
- relative viability ([1]; first compound 0.2 µM): 0.242
- relative viability ([2]; first compound 0.08 µM): 0.971
- relative viability ([2]; first compound 0.253 µM): 1.06
- relative viability ([2]; first compound 0.8 µM): 1.01
- relative viability ([2]; first compound 2.53 µM): 0.951
- relative viability ([2]; first compound 8 µM): 1.05
- relative viability ([3]; first compound 0.002 µM): 0.961
- relative viability ([3]; first compound 0.006325 µM): 0.852
- relative viability ([3]; first compound 0.02 µM): 0.63
- relative viability ([3]; first compound 0.06325 µM): 0.266
- relative viability ([3]; first compound 0.2 µM): 0.243
- relative viability ([4]; first compound 0.08 µM): 0.189
- relative viability ([4]; first compound 0.253 µM): 0.206
- relative viability ([4]; first compound 0.8 µM): 0.188
- relative viability ([4]; first compound 2.53 µM): 0.196
- relative viability ([4]; first compound 8 µM): 0.205
